In article PMC8699473, “An Easily Expandable Multi-Drug LC-MS Assay for the Simultaneous Quantification of 57 Oral Antitumor Drugs in Human Plasma” (Cancers, 2021):

Test: Short-term stability in spiked pooled human plasma (bench-top, 4 °C, 56 °C)

| SMILES | Short-time stability (1h, 56°C) Accuracy [%] (validation standard 2xLLOV) | Short-time stability (24h, 4°C, without daylight) Accuracy [%] (validation standard 2xLLOV) | Short-time stability (24h, RT, with daylight) Accuracy [%] (validation standard 2xLLOV) | Short-time stability (24h, RT, without daylight) Accuracy [%] (validation standard 2xLLOV) | Short-time stability (1h, 56°C) Accuracy [%] (validation standard LLOV) | Short-time stability (24h, 4°C, without daylight) Accuracy [%] (validation standard LLOV) | Short-time stability (24h, RT, with daylight) Accuracy [%] (validation standard LLOV) | Short-time stability (24h, RT, without daylight) Accuracy [%] (validation standard LLOV) | Short-time stability (1h, 56°C) Accuracy [%] (validation standard MOV) | Short-time stability (24h, 4°C, without daylight) Accuracy [%] (validation standard MOV) | Short-time stability (24h, RT, with daylight) Accuracy [%] (validation standard MOV) | Short-time stability (24h, RT, without daylight) Accuracy [%] (validation standard MOV) | Short-time stability (1h, 56°C) Accuracy [%] (validation standard ULOV) | Short-time stability (24h, 4°C, without daylight) Accuracy [%] (validation standard ULOV) | Short-time stability (24h, RT, with daylight) Accuracy [%] (validation standard ULOV) | Short-time stability (24h, RT, without daylight) Accuracy [%] (validation standard ULOV) | concentrations in short-term stability investigations (24 h, room temperature, with or without light) | light sensitivity (acceptance limit <85%) |
| --- | --- | --- | --- | --- | --- | --- | --- | --- | --- | --- | --- | --- | --- | --- | --- | --- | --- | --- |
| C[C@]12CC[C@H](O)CC1=CC[C@@H]1[C@@H]2CC[C@]2(C)C(c3cccnc3)=CC[C@@H]12 [Abiraterone] | 46.5 | 96.9 | 101.7 | 101.5 | 49.9 | 104.6 | 105.6 | 105.2 | 40.7 | 97.4 | 103.1 | 101.1 | 34.9 | 95.4 | 103.3 | 102.0 | – | – |
| CN(C)C/C=C/C(=O)Nc1cc2c(Nc3ccc(F)c(Cl)c3)ncnc2cc1O[C@H]1CCOC1 [Afatinib] | 30.4 | 85.5 | 80.8 | 92.5 | 7.2 | 85.9 | 64.3 | 69.9 | 36.2 | 97.9 | 89.4 | 91.4 | 33.2 | 92.8 | 77.8 | 82.7 | 64.3–92.5% | – |
| O=C1CN2Cc3c(ccc(Cl)c3Cl)N=C2N1 [Anagrelide] | 66.3 | 104.2 | 84.8 | 84.4 | 55.6 | 90.4 | 78.3 | 67.4 | 52.9 | 96.9 | 96.0 | 88.7 | 46.2 | 93.5 | 98.5 | 94.1 | – | – |
| CNC(=O)c1ccccc1Sc1ccc2c(/C=C/c3ccccn3)n[nH]c2c1 [Axitinib] | 67.7 | 103.6 | 107.5 | 86.7 | 71.1 | 129.6 | 108.7 | 106.1 | 54.6 | 100.6 | 116.9 | 99.3 | 46.2 | 97.2 | 123.3 | 101.6 | – | no losses of concentrations below the acceptance limit |
| COc1cc(N2CCC(N3CCN(C)CC3)CC2)ccc1Nc1ncc(Cl)c(Nc2ccccc2P(C)(C)=O)n1 [Brigatinib] | 18.2 | 102.8 | 76.4 | 74.1 | 7.8 | 95.0 | 55.6 | 55.1 | 38.5 | 104.2 | 85.3 | 93.4 | 35.7 | 93.7 | 91.3 | 90.3 | – | – |
| COc1cc2nccc(Oc3ccc(NC(=O)C4(C(=O)Nc5ccc(F)cc5)CC4)cc3)c2cc1OC [Cabozantinib] | 49.1 | 101.8 | 103.6 | – | 30.2 | 98.5 | 91.8 | – | 51.8 | 102.2 | 104.9 | – | 44.1 | 96.1 | – | – | – | – |
| Cc1cc(Nc2ncc(Cl)c(Nc3ccccc3S(=O)(=O)C(C)C)n2)c(OC(C)C)cc1C1CCNCC1 [Ceritinib] | 39.7 | 95.5 | 66.9 | 72.2 | 42.5 | 102.1 | 70.9 | 77.7 | 34.6 | 93.9 | 84.1 | 92.2 | 32.0 | 92.7 | 91.8 | 96.2 | – | – |
| O=C(c1ccc(F)c(F)c1Nc1ccc(I)cc1F)N1CC(O)([C@@H]2CCCCN2)C1 [Cobimetinib] | 51.4 | 100.9 | 98.3 | 98.8 | 42.7 | 99.9 | 98.6 | 99.8 | 47.6 | 102.5 | 102.4 | 103.8 | 41.3 | 97.5 | 103.8 | 100.3 | – | – |
| C[C@@H](Oc1cc(-c2cnn(C3CCNCC3)c2)cnc1N)c1c(Cl)ccc(F)c1Cl [Crizotinib] | – | – | 85.9 | 92.4 | – | – | 62.9 | 71.2 | – | – | 95.3 | 99.8 | – | – | 85.2 | 89.5 | – | – |
| Cc1nc(Nc2ncc(C(=O)Nc3c(C)cccc3Cl)s2)cc(N2CCN(CCO)CC2)n1 [Dasatinib] | 47.7 | 102.2 | 90.1 | 98.3 | 65.9 | 124.4 | 90.7 | 115.9 | 46.4 | 100.1 | 91.7 | 90.0 | 38.9 | 96.7 | 99.4 | 93.1 | – | – |
| CNC(=O)c1ccc(N2C(=S)N(c3ccc(C#N)c(C(F)(F)F)c3)C(=O)C2(C)C)cc1F [Enzalutamide] | 59.4 | 103.3 | 106.1 | 108.3 | 50.0 | 102.0 | 100.4 | 103.0 | 58.9 | 98.9 | 108.7 | 107.8 | 50.9 | 95.8 | 103.4 | 103.8 | – | – |
| C#Cc1cccc(Nc2ncnc3cc(OCCOC)c(OCCOC)cc23)c1 [Erlotinib] | 61.0 | 100.7 | – | 95.3 | 69.2 | 110.4 | – | 107.4 | 52.1 | 98.0 | – | 97.9 | 45.8 | 98.7 | – | 101.0 | – | – |
| COc1cc2ncnc(Nc3ccc(F)c(Cl)c3)c2cc1OCCCN1CCOCC1 [Gefitinib] | 46.0 | 97.4 | 91.9 | 92.1 | 33.3 | 90.9 | 83.0 | 83.7 | 49.1 | 103.4 | 96.2 | 93.8 | 42.1 | 94.9 | 88.3 | 87.7 | – | – |
| Cc1ccc(NC(=O)c2ccc(CN3CCN(C)CC3)cc2)cc1Nc1nccc(-c2cccnc2)n1 [Imatinib] | – | 105.2 | 86.0 | 82.7 | – | 81.3 | 83.7 | 83.8 | – | 102.2 | 93.6 | 88.6 | – | 94.2 | 85.6 | 82.9 | – | – |
